# Tested on: NMNAT2
# Experiment: NMNAT2-Hibit nano-luciferase activity in transfected U87MG cells, 5 μM, 48 hours
# Type: cell-based
# Details: NMNAT2-Hibit luciferase plasmid, 48 hours (Table D)
# Description: Selected compounds were tested in vitro. Briefly, U87MG cells were transfected with NMNAT2-Hibit luciferase plasmid. Cells were treated with test compound at 5 μM for 48 hours. Cells were then collected and assayed for nano-luciferase activity.
row,Structure (SMILES),D: compound efficacy for NMNAT2 activation; increase in NMNAT2 luciferase activity
1,Cc1ccc(C)c(Cn2cc(CCC(=O)NCC3=CC=CC3)c3ccccc32)c1 [BC181246],++ (“++” >20% and <100% increase in NMNAT2 luciferase activity.)
2,O=C(Cn1cc(C(=O)c2ccccc2)c2ccccc21)NCc1ccco1 [BC181206],++ (“++” >20% and <100% increase in NMNAT2 luciferase activity.)
3,COc1ccc(NC(=O)Cn2cc(C(=O)c3ccccc3)c3ccccc32)cc1 [BC181213],+ (“+” <20% increase in NMNAT2 luciferase activity.)
4,Cc1ccccc1Cn1cc(CCC(=O)NCc2ccco2)c2ccccc21 [BC181243],++ (“++” >20% and <100% increase in NMNAT2 luciferase activity.)
5,CC(=O)c1cn(CC(=O)NCCn2ccc3ccc(C)cc32)c2ccccc12 [BC181268],++ (“++” >20% and <100% increase in NMNAT2 luciferase activity.)
6,Cc1ccc2c(c1)c(=O)c(C(=O)c1ccncc1)cn2CC(=O)NCc1ccc(F)cc1 [BC181252],++ (“++” >20% and <100% increase in NMNAT2 luciferase activity.)
7,O=C(CC(CCc1ccccc1)c1cn(Cc2ccccc2)c2ccccc12)NCc1ccco1 (centres unmarked) [BC181264],+ (“+” <20% increase in NMNAT2 luciferase activity.)
8,O=C(Cn1cc(C(=O)c2ccncc2)c(=O)c2cc(F)ccc21)NCc1ccccc1 [BC181253],++ (“++” >20% and <100% increase in NMNAT2 luciferase activity.)
9,Cc1ccc(Cn2cc(C(CC(=O)NCc3ccco3)C(C)C)c3ccccc32)cc1 (centres unmarked) [BC181265],+ (“+” <20% increase in NMNAT2 luciferase activity.)
10,CC1CCCCN1C(=O)Cn1cc(C(=O)c2ccccc2)c2ccccc21 (centres unmarked) [BC181218],+ (“+” <20% increase in NMNAT2 luciferase activity.)
11,O=C(Cn1cc(C(=O)C2CCCCC2)c2ccccc21)NCCc1ccccc1 [BC181222],++ (“++” >20% and <100% increase in NMNAT2 luciferase activity.)
12,Cc1ccc(Cn2cc(C(CC(=O)NCc3ccco3)c3cccc(C)c3)c3ccccc32)cc1 (centres unmarked) [BC181259],++ (“++” >20% and <100% increase in NMNAT2 luciferase activity.)
13,Cc1ccc(CNC(=O)Cn2cc(C(=O)c3ccncc3)c(=O)c3cc(C)c(C)cc32)cc1 [BC181255],+ (“+” <20% increase in NMNAT2 luciferase activity.)
14,O=C(Cn1cc(C(=O)c2ccccc2)c2ccccc21)NCC1=CC=CC1 [BC181207],++ (“++” >20% and <100% increase in NMNAT2 luciferase activity.)
15,COc1ccc(Cn2cc(C(CC(=O)NCc3ccco3)C(C)(C)C)c3ccccc32)cc1 (centres unmarked) [BC181263],++ (“++” >20% and <100% increase in NMNAT2 luciferase activity.)
16,Cc1ccccc1Cn1cc(CCC(=O)NCC2=CC=CC2)c2ccccc21 [BC181244],++ (“++” >20% and <100% increase in NMNAT2 luciferase activity.)
17,COc1ccc(C(CC(=O)NCc2ccco2)c2cn(Cc3ccc(C)cc3)c3ccccc23)cc1 (centres unmarked) [BC181261],++ (“++” >20% and <100% increase in NMNAT2 luciferase activity.)
18,O=C(Cn1cc(C(=O)c2ccccc2)c2ccccc21)NCc1ccc2c(c1)OCO2 [BC181216],+ (“+” <20% increase in NMNAT2 luciferase activity.)
19,CC(NC(=O)Cn1cc(C(=O)c2ccccc2)c2ccccc21)c1ccccc1 (centres unmarked) [BC181224],+ (“+” <20% increase in NMNAT2 luciferase activity.)

row,Structure (SMILES),D: compound efficacy for NMNAT2 activation; increase in NMNAT2 luciferase activity
1,O=C(Cn1cc(C(=O)C2CC2)c2ccccc21)NCc1ccccc1 [BC181203],++ (“++” >20% and <100% increase in NMNAT2 luciferase activity.)
2,Cc1ccc(Cn2cc(CCC(=O)NCc3ccco3)c3ccccc32)cc1 [BC181240],+ (“+” <20% increase in NMNAT2 luciferase activity.)
3,CCC(=O)c1cn(CC(=O)NCc2cccnc2)c2ccccc12 [BC181226],+ (“+” <20% increase in NMNAT2 luciferase activity.)
4,CC(NC(=O)Cn1cc(C(=O)C2CCCCC2)c2ccccc21)c1ccccc1 (centres unmarked) [BC181225],+ (“+” <20% increase in NMNAT2 luciferase activity.)
5,CCn1cc(CCCC(=O)NCc2ccc(F)cc2)c2ccccc21 [BC181229],++ (“++” >20% and <100% increase in NMNAT2 luciferase activity.)
6,Cc1ccc(Cn2cc(CCCC(=O)NCc3ccco3)c3ccccc32)cc1 [BC181231],++ (“++” >20% and <100% increase in NMNAT2 luciferase activity.)
7,Cc1cccc(NC(=O)Cn2cc(C(=O)c3ccccc3)c3ccccc32)c1 [BC181208],+ (“+” <20% increase in NMNAT2 luciferase activity.)
8,CC1CCN(C(=O)Cn2cc(C(=O)c3ccccc3)c3ccccc32)CC1 [BC181205],+ (“+” <20% increase in NMNAT2 luciferase activity.)
9,O=C(Cn1cc(C(=O)C2CCCCC2)c2ccccc21)NCc1ccco1 [BC181220],+++ (“+++” >100% increase in NMNAT2 luciferase activity.)
10,Cc1ccc(Cn2cc(CCCC(=O)NCc3ccco3)c3ccccc32)cc1 [BC181230],+++ (“+++” >100% increase in NMNAT2 luciferase activity.)
11,Cc1ccccc1Cn1cc(CCC(=O)NCC2=CC=CC2)c2ccccc21 [BC181238],++ (“++” >20% and <100% increase in NMNAT2 luciferase activity.)
12,Cc1ccc(NC(=O)Cn2cc(C(=O)c3ccccc3)c3ccccc32)cc1C [BC181212],+ (“+” <20% increase in NMNAT2 luciferase activity.)
13,Cc1ccc(Cn2cc(C(CC(=O)NCc3ccco3)c3ccc(C)cc3)c3ccccc32)cc1 (centres unmarked) [BC181258],++ (“++” >20% and <100% increase in NMNAT2 luciferase activity.)
14,Cc1ccc(C)c(Cn2cc(CCC(=O)NCc3ccco3)c3ccccc32)c1 [BC181245],++ (“++” >20% and <100% increase in NMNAT2 luciferase activity.)
15,Cc1ccc(Cn2cc(C(CC(=O)NCc3ccco3)c3ccc(C)cc3)c3ccccc32)cc1 (centres unmarked) [BC181262],++ (“++” >20% and <100% increase in NMNAT2 luciferase activity.)
16,Cc1cccc(NC(=O)Cn2cc(C(=O)c3ccccc3)c3ccccc32)c1C [BC181210],++ (“++” >20% and <100% increase in NMNAT2 luciferase activity.)
17,Cc1ccc(Cn2cc(CCC(=O)NCC3=CC=CC3)c3ccccc32)cc1 [BC181239],+ (“+” <20% increase in NMNAT2 luciferase activity.)
18,Cc1ccc(Cn2cc(C(CC(=O)NCc3ccco3)c3ccccc3C)c3ccccc32)cc1 (centres unmarked) [BC181260],++ (“++” >20% and <100% increase in NMNAT2 luciferase activity.)
19,Cc1ccccc1Cn1cc(CCCC(=O)NCc2ccco2)c2ccccc21 [BC181235],++ (“++” >20% and <100% increase in NMNAT2 luciferase activity.)

# — US20220169632A1, “METHODS AND MATERIALS FOR INCREASING OR MAINTAINING NICOTINAMIDE MONONUCLEOTIDE ADENYLYL TRANSFERASE-2 (NMNAT2) POLYPEPTIDE LEVELS” (University of Pittsburgh - Of the Commonwealth System of …, priority 2019, published 2022)
